In ChEMBL document CHEMBL5321202, “Design, synthesis and anti-AD effects of dual inhibitor targeting glutaminyl cyclase/GSK-3β” (Eur J Med Chem, 2023):
Calls of active or inactive are those of the source. The calls are words filed in the database; no cut-off is given here.

Columns and labels:
[1] = target: Glycogen synthase kinase-3 beta (Homo sapiens, UniProt P49841); experiment: Inhibition of GSK3beta (unknown origin) activity assessed as fluorescence intensity by ADP-Glo Kinase Assay
[2] = target: Glutaminyl-peptide cyclotransferase (Homo sapiens, UniProt Q16769); experiment: Inhibition of human glutaminyl cyclase activity assessed as fluorescence using H-Gln-AMC substrate
Sequence of Glutaminyl-peptide cyclotransferase (Q16769 whole entry): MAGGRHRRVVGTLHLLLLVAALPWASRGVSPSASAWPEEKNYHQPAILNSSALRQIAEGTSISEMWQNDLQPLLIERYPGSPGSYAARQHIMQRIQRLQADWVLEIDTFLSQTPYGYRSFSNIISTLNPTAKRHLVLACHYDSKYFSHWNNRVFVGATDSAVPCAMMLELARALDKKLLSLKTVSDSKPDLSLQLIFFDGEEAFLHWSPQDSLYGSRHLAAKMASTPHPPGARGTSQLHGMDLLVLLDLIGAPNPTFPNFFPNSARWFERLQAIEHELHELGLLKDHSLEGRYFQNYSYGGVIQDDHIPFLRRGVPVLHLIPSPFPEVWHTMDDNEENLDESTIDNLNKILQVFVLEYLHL

[3] = In vivo inhibition of GSK3beta activity in cortex region of 3 x Tg-AD mouse model at 8 mg/kg, ip every 48 hrs once for 45 days by Western blot analysis relative to control; type: functional; set-up: scale not given: the % may be the effect or the level left; conditions: time 45 day
[4] = species on record: Mus musculus; conditions: dose 8.0 mg/kg, route ip, time 45.0 day

Sequence of Glycogen synthase kinase-3 beta (P49841 whole entry): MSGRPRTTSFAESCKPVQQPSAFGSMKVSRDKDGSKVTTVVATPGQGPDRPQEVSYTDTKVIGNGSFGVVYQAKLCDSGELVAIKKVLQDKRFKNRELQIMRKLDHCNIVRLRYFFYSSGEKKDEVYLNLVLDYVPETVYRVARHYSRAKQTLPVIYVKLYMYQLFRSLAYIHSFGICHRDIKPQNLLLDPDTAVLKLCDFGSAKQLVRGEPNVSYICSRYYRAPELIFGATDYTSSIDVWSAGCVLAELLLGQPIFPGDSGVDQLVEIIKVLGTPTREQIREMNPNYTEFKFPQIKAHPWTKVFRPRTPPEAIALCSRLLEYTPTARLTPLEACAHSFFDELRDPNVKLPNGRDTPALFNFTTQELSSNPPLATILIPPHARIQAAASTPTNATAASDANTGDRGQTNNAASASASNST

Row | IC50 [1] | IC50 [2] | Compound | Activity [3] | inhibition [4]
1 | 47.1 µM | 3.39 µM | Cc1ccc2c(c1)c(C1=C(c3ccccc3F)C(=O)NC1=O)cn2CCCn1ccnc1 | – | –
2 | 0.38 µM | 3.44 µM | Cc1ccc(C2=C(c3cn(CCCn4ccnc4)c4cc(Br)ccc34)C(=O)NC2=O)cc1 | – | –
3 | 0.059 µM | 4.97 µM | COc1ccc2c(c1)c(C1=C(c3ccc4ccccc4c3)C(=O)NC1=O)cn2CCCn1ccnc1 | – | –
4 | 0.014 µM | 5.9 µM | COc1ccc(C2=C(c3cn(CCCn4ccnc4)c4ccc(OC)cc34)C(=O)NC2=O)cc1 | – | –
5 | 19 µM | 7.32 µM | COc1ccccc1C1=C(c2cn(CCCn3ccnc3)c3ccccc23)C(=O)NC1=O | – | –
6 | 20.8 µM | 3.65 µM | COc1ccc2c(c1)c(C1=C(c3ccccc3F)C(=O)NC1=O)cn2CCCn1ccnc1 | – | –
7 | 26.7 µM | 4.18 µM | Cc1ccccc1C1=C(c2cn(CCCn3ccnc3)c3ccccc23)C(=O)NC1=O | – | –
8 | 9.19 µM | 3.51 µM | O=C1NC(=O)C(c2cn(CCCn3ccnc3)c3ccccc23)=C1c1ccc2ccccc2c1 | – | –
9 | 5.2 µM | 6.62 µM | COc1ccccc1C1=C(c2cn(CCCn3ccnc3)c3ccc(Br)cc23)C(=O)NC1=O | – | –
10 | 0.72 µM | 2.81 µM | O=C1NC(=O)C(c2cn(CCCn3ccnc3)c3cc(Br)ccc23)=C1c1ccc(F)cc1 | – | –
11 | 0.066 µM | 4.28 µM | O=C1NC(=O)C(c2cn(CCCn3ccnc3)c3ccc(Br)cc23)=C1c1ccccc1[N+](=O)[O-] | – | –
12 | 0.1 µM | 69.1 µM | Cc1ccc2c(C3=C(c4ccccc4[N+](=O)[O-])C(=O)NC3=O)cn(CCCn3ccnc3)c2c1 | – | –
13 | 0.14 µM | 10.8 µM | Cc1ccc2c(C3=C(c4ccc5ccccc5c4)C(=O)NC3=O)cn(CCCn3ccnc3)c2c1 | – | –
14 | 17.7 µM | 2.37 µM | O=C1NC(=O)C(c2cn(CCCn3ccnc3)c3ccccc23)=C1c1ccccc1F | – | –
15 | 0.069 µM | 1.76 µM | O=C1NC(=O)C(c2cn(CCCn3ccnc3)c3ccc(Br)cc23)=C1c1ccccc1 | – | –
16 | 0.044 µM | 2.51 µM | O=C1NC(=O)C(c2cn(CCCn3ccnc3)c3ccc(Br)cc23)=C1c1ccc2c(c1)OCO2 | – | –
17 | 0.097 µM | 7.01 µM | COc1ccc(C2=C(c3cn(CCCn4ccnc4)c4cc(C)ccc34)C(=O)NC2=O)cc1 | – | –
18 | 0.09 µM | 1.04 µM | O=C1NC(=O)C(c2cn(CCCn3ccnc3)c3ccc(Br)cc23)=C1c1cccs1 | – | –
19 | 0.23 µM | 2.59 µM | COc1ccc(C2=C(c3cn(CCCn4ccnc4)c4cc(Br)ccc34)C(=O)NC2=O)cc1 | – | –
20 | 0.1 µM | 3.98 µM | O=C1NC(=O)C(c2cn(CCCn3ccnc3)c3cc(Br)ccc23)=C1c1ccc2ccccc2c1 | – | –
21 | 15.4 µM | 4.34 µM | Cc1ccc(C2=C(c3cn(CCCn4ccnc4)c4ccccc34)C(=O)NC2=O)cc1 | – | –
22 | 0.19 µM | 2.08 µM | Cc1ccc(C2=C(c3cn(CCCn4ccnc4)c4ccc(Br)cc34)C(=O)NC2=O)cc1 | – | –
23 | 0.087 µM | 5.12 µM | Cc1ccccc1C1=C(c2cn(CCCn3ccnc3)c3ccc(Br)cc23)C(=O)NC1=O | – | –
24 | 7.75 µM | 5.47 µM | Cc1ccc(C2=C(c3cn(CCCn4ccnc4)c4ccc(C)cc34)C(=O)NC2=O)cc1 | – | –
25 | 35.1 µM | 2.26 µM | O=C1NC(=O)C(c2cn(CCCn3ccnc3)c3ccccc23)=C1c1ccccc1[N+](=O)[O-] | – | –
26 | 5.14 µM | 3.44 µM | Cc1ccc2c(c1)c(C1=C(c3ccc4ccccc4c3)C(=O)NC1=O)cn2CCCn1ccnc1 | – | –
27 | 0.11 µM | 2.34 µM | Cc1cc(C)c(C2=C(c3cn(CCCn4ccnc4)c4ccc(Br)cc34)C(=O)NC2=O)c(C)c1 | – | –

Row | IC50 [1] | IC50 [2] | Compound | Activity [3] | inhibition [4]
28 | 19.8 µM | 2.44 µM | COc1ccc2c(c1)c(C1=C(c3ccccc3OC)C(=O)NC1=O)cn2CCCn1ccnc1 | – | –
29 | 0.11 µM | 2.33 µM | COc1ccc(C2=C(c3cn(CCCn4ccnc4)c4ccc(Br)cc34)C(=O)NC2=O)cc1 | – | –
30 | 0.014 µM | 2.8 µM | O=C1NC(=O)C(c2cn(CCCn3ccnc3)c3ccccc23)=C1c1ccccc1 | – | –
31 | 0.42 µM | 8.17 µM | CC(C)(C)c1ccc(C2=C(c3cn(CCCn4ccnc4)c4ccc(Br)cc34)C(=O)NC2=O)cc1 | – | –
32 | 23.3 µM | 4.36 µM | Cc1ccc2c(c1)c(C1=C(c3ccc(F)cc3)C(=O)NC1=O)cn2CCCn1ccnc1 | – | –
33 | 0.073 µM | 3.84 µM | Cc1ccc2c(c1)c(C1=C(c3ccccc3C)C(=O)NC1=O)cn2CCCn1ccnc1 | – | –
34 | 0.14 µM | 2.55 µM | O=C1NC(=O)C(c2cn(CCCn3ccnc3)c3ccc(Br)cc23)=C1c1ccc(F)cc1 | – | –
35 | 0.034 µM | 9.91 µM | COc1ccc2c(c1)c(C1=C(c3ccccc3[N+](=O)[O-])C(=O)NC1=O)cn2CCCn1ccnc1 | – | –
36 | 0.099 µM | 9 µM | COc1ccc2c(c1)c(C1=C(c3ccc(C)cc3)C(=O)NC1=O)cn2CCCn1ccnc1 | – | –
37 | 0.15 µM | 0.36 µM | COc1ccc2c(c1)c(C1=C(c3ccc(F)cc3)C(=O)NC1=O)cn2CCCn1ccnc1 | – | –
38 | 0.021 µM | 21.7 µM | COc1ccccc1C1=C(c2cn(CCCn3ccnc3)c3cc(Br)ccc23)C(=O)NC1=O | – | –
39 | 0.59 µM | 6.88 µM | O=C1NC(=O)C(c2cn(CCCn3ccnc3)c3ccc(Br)cc23)=C1c1cc(C(F)(F)F)cc(C(F)(F)F)c1 | – | –
40 | 0.04 µM | 7.46 µM | COc1ccc(C2=C(c3cn(CCCn4ccnc4)c4ccccc34)C(=O)NC2=O)cc1 | – | –
41 | 0.065 µM | 8.12 µM | COc1ccccc1C1=C(c2cn(CCCn3ccnc3)c3ccc(C)cc23)C(=O)NC1=O | – | –
42 | 0.12 µM | 2.35 µM | O=C1NC(=O)C(c2cn(CCCn3ccnc3)c3ccc(Br)cc23)=C1c1cc(F)c(F)cc1F | – | –
43 | 19.9 µM | 6.13 µM | COc1ccc(C2=C(c3cn(CCCn4ccnc4)c4ccc(C)cc34)C(=O)NC2=O)cc1 | – | –
44 | 0.069 µM | 2.98 µM | O=C1NC(=O)C(c2cn(CCCn3ccnc3)c3ccc(Br)cc23)=C1c1ccc2ccccc2c1 | – | –
45 | 8.01 µM | 4.34 µM | COc1ccc2c(c1)c(C1=C(c3ccccc3C)C(=O)NC1=O)cn2CCCn1ccnc1 | – | –
46 | 0.14 µM | 3.85 µM | Cc1ccccc1C1=C(c2cn(CCCn3ccnc3)c3cc(Br)ccc23)C(=O)NC1=O | – | –
47 | 0.011 µM | 10.8 µM | COc1ccc2c(C3=C(c4ccccc4F)C(=O)NC3=O)cn(CCCn3ccnc3)c2c1 | – | –
48 | 0.048 µM | 11.9 µM | Cc1ccc(C2=C(c3cn(CCCn4ccnc4)c4cc(C)ccc34)C(=O)NC2=O)cc1 | – | –
49 | 0.032 µM | 4.7 µM | O=C1NC(=O)C(c2cn(CCCn3ccnc3)c3ccc(Br)cc23)=C1c1ccccc1F | – | –
50 | 0.051 µM | 3.16 µM | COc1ccc(C2=C(c3cn(CCCn4ccnc4)c4ccc(Br)cc34)C(=O)NC2=O)cc1OC | – | –
51 | 0.06 µM | 4.77 µM | O=C1NC(=O)C(c2cn(CCCn3ccnc3)c3cc(Br)ccc23)=C1c1ccccc1F | – | –
52 | 22.8 µM | 4.27 µM | O=C1NC(=O)C(c2cn(CCCn3ccnc3)c3ccccc23)=C1c1c[nH]c2ccccc12 | – | –
53 | 8.15 µM | 3.62 µM | Cc1ccc2c(c1)c(C1=C(c3ccccc3[N+](=O)[O-])C(=O)NC1=O)cn2CCCn1ccnc1 | – | –

Row | Compound | IC50 [1] | IC50 [2] | Activity [3] | inhibition [4]
54 | O=C1NC(=O)C(c2cn(CCCn3ccnc3)c3ccccc23)=C1c1ccc(F)cc1 | 0.057 µM | 1.34 µM | 73.4% | Active
